Results: patent publication US9513294B2, “Megastokes amino-triazolyl-BODIPY compounds and applications to live neuron staining and human serum albumin FA1 drug site probing” (National University of Singapore, priority 2012, dated 2016)

Legend:
[1] = Absorbance and fluorescence emission spectra (SpectraMax M2); format: physicochemical; details: for λmax Absorp. (nm) / λmax Emission (nm): MKCA compound library; for λmax Absorp. (nm) / λmax Abs. (nm): absorbance maximum; for λmax Emission (nm) / λmax Em. (nm): fluorescence emission maximum; for λmax Abs. (nm) / λmax Em. (nm): MKAC compound library
Summary of the method: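 Absorbance and emission maxima measured on a SpectraMax M2 spectrophotometer, which also gave quantum yield data; analysis in GraphPrism.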

[2] = Quantum yield measurements versus Acridine Yellow in EtOH; format: physicochemical; details: for φ (quantum yield): excitation 460 nm; for φ (%): quantum yield
Summary of the method: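 Fluorescence quantum yield is relative to Acridine Yellow in EtOH (Φ 0.47), with excitation at 460 nm. Integrated emission at 510–700 nm was corrected for absorbance at the excitation wavelength and for solvent refractive index.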

λmax Absorp. ([1]; MK library, Table 5) [nm]	λmax Emission ([1]; MK library, Table 5) [nm]	φ (quantum yield) ([2]; MK library, Table 5) [%]	λmax Absorp. (nm) [1] [nm]	λmax Emission (nm) [1] [nm]	φ (%) ([2]; MKCA compound library)	SMILES	further results
			469	582	3.50	CCCC(C)c1cn(-c2ccc3n2[B-](F)(F)[N+]2=C(N4CCc5ccccc5C4)C=CC2=C3c2ccc(NC(=O)CCl)cc2)nn1 (stereo not drawn) [MKCA66-3]	
			463	560	26.25	CN(Cc1ccccc1)Cc1cn(-c2ccc3n2[B-](F)(F)[N+]2=C(NCc4cc(F)cc(F)c4)C=CC2=C3c2ccc(NC(=O)CCl)cc2)nn1 [MKCA412-18]	
			468	563	41.21	O=C(CCl)Nc1ccc(C2=C3C=CC(NCc4cc(F)cc(F)c4)=[N+]3[B-](F)(F)n3c2ccc3-n2cc(C3CCCC3)nn2)cc1 [MKCA412-5]	
			469	586	3.38	CCCCCC(O)c1cn(-c2ccc3n2[B-](F)(F)[N+]2=C(N4CCc5ccccc5C4)C=CC2=C3c2ccc(NC(=O)CCl)cc2)nn1 (stereo not drawn) [MKCA66-69]	
			468	581	2.61	O=C(CCl)Nc1ccc(C2=C3C=CC(N4CCc5ccccc5C4)=[N+]3[B-](F)(F)n3c2ccc3-n2cc(CO)nn2)cc1 [MKCA66-70]	
			469	586	3.23	CCCCCC(O)c1cn(-c2ccc3n2[B-](F)(F)[N+]2=C(N4CC(C)OC(C)C4)C=CC2=C3c2ccc(NC(=O)CCl)cc2)nn1 (stereo not drawn) [MKCA20-69]	

Further lines, the compound ahead of its results:

SMILES	λmax Absorp. ([1]; MK library, Table 5) [nm]	λmax Emission ([1]; MK library, Table 5) [nm]	φ (quantum yield) ([2]; MK library, Table 5) [%]	λmax Absorp. (nm) [1] [nm]	λmax Emission (nm) [1] [nm]	φ (%) ([2]; MKCA compound library)	further results
CCOc1ccccc1CNC1=[N+]2C(=C(c3ccc(N)cc3)c3ccc(-n4cc(CC5CCCCC5)nn4)n3[B-]2(F)F)C=C1 [MK103-8]	473	563	1.64				
CCCCCCCCc1cn(-c2ccc3n2[B-](F)(F)[N+]2=C(N4CCCCC4)C=CC2=C3c2ccc(NC(=O)CCl)cc2)nn1 [BDCCA-44]							λmax Absorp. ([1]; BDCCA library, Table 4): 466 nm; λmax Emission ([1]; BDCCA library, Table 4): 582 nm; φ (quantum yield) ([2]; BDCCA library, Table 4): 0.7%
Nc1ccc(C2=C3C=CC(NCc4cc(F)cc(F)c4)=[N+]3[B-](F)(F)n3c2ccc3-n2cc(C3CC3)nn2)cc1 [MK412-4]	475	562	0.67				
Cc1ccccc1CNC1=[N+]2C(=C(c3ccc(N)cc3)c3ccc(-n4cc(CN(C)Cc5ccccc5)nn4)n3[B-]2(F)F)C=C1 [MK101-18]	474	563	0.179				
CCCC(C)c1cn(-c2ccc3n2[B-](F)(F)[N+]2=C(NCc4cc(OC)ccc4OC)C=CC2=C3c2ccc(NC(C)=O)cc2)nn1 (racemic) [MKAC181-3]							λmax Abs. (nm) [1]: 465 nm; λmax Em. (nm) [1]: 562 nm; φ (%) ([2]; MKAC compound library): 15.41%
CC(=O)Nc1ccc(C2=C3C=CC(N4CCCCC4)=[N+]3[B-](F)(F)n3c2ccc3-n2cc(COc3ccccc3)nn2)cc1 [BDCAC-17]							λmax Absorp. ([1]; BDCAC library, Table 3): 465 nm; λmax Emission ([1]; BDCAC library, Table 3): 584 nm; φ (quantum yield) ([2]; BDCAC library, Table 3): 0.8%
CC(C)(C)c1cn(-c2ccc3n2[B-](F)(F)[N+]2=C(N4CCCCC4)C=CC2=C3c2ccc(N)cc2)nn1 [BDC-1]							λmax Absorp. ([1]; BDC library, Table 2): 475 nm; λmax Emission ([1]; BDC library, Table 2): 593 nm; φ (quantum yield) ([2]; BDC library, Table 2): 0.18%
CC(=O)Nc1ccc(C2=C3C=CC(N4CC(C)OC(C)C4)=[N+]3[B-](F)(F)n3c2ccc3-n2cc(CCc3ccccc3)nn2)cc1 (stereo not drawn) [MKAC20-19]							λmax Abs. (nm) [1]: 467 nm; λmax Em. (nm) [1]: 579 nm; φ (%) ([2]; MKAC compound library): 3.12%
CC(C)Cc1cn(-c2ccc3n2[B-](F)(F)[N+]2=C(N4CC(C)OC(C)C4)C=CC2=C3c2ccc(N)cc2)nn1 (stereo not drawn) [MK20-43]	478	584	0.23				
CCCCCC(O)c1cn(-c2ccc3n2[B-](F)(F)[N+]2=C(NCc4ccccc4C)C=CC2=C3c2ccc(NC(C)=O)cc2)nn1 (stereo not drawn) [MKAC101-69]							λmax Abs. (nm) [1]: 461 nm; λmax Em. (nm) [1]: 562 nm; φ (%) ([2]; MKAC compound library): 24.08%
CCOc1ccccc1CNC1=[N+]2C(=C(c3ccc(N)cc3)c3ccc(-n4cc(CO)nn4)n3[B-]2(F)F)C=C1 [MK103-70]	472	562	1.93				
CC(=O)Nc1ccc(C2=C3C=CC(N4CCCCC4)=[N+]3[B-](F)(F)n3c2ccc3-n2cc(-c3ccccc3)nn2)cc1 [BDCAC-9]							λmax Absorp. ([1]; BDCAC library, Table 3): 465 nm; λmax Emission ([1]; BDCAC library, Table 3): 579 nm; φ (quantum yield) ([2]; BDCAC library, Table 3): 1.1%
CCCC(C)c1cn(-c2ccc3n2[B-](F)(F)[N+]2=C(NCc4cc(OC)ccc4OC)C=CC2=C3c2ccc(N)cc2)nn1 (stereo not drawn) [MK181-3]	473	565	0.36				
Nc1ccc(C2=C3C=CC(N4CCCC4)=[N+]3[B-](F)(F)n3c2ccc3-n2cc(CC3CCCCC3)nn2)cc1 [MK215-8]	470	574	0.56				
